# Source: patent US12134607B2, “Crystals of tetrahydronaphthyl urea derivative” (MOCHIDA PHARMACEUTICAL CO., LTD., priority 2017, dated 2024)
# Columns and labels:
# [1] = Safety observation in pharmacology experiments 3 and 4 in rats; assay type: in vivo; conditions: oral administration
# Procedure: (Pharmacology Experiment 3): Inhibitory Effect on NGF-Induced Vascular Permeability Increase in Rats
# The inhibitory activity against TrkA in vivo was evaluated. Clipped back male Sprague-Dawley rats (CD(SD)IGS rats, Charles River, Japan) were orally administered test compound (1) dissolved or suspended in a solvent (dose volume: 5 mL/kg). Vehicle controls were treated orally with vehicle. […] A 200 μL of the formamide extract was transferred to a 96-well plate (Nunc), and the absorbance (wavelength: 620 nm) of Evans blue extracted into formamide was measured using SpectraMax (Molecular Device). […]
# The analgesic effect of the test compound (1) was evaluated in a CFA-induced rat model. […]
# Measurements were made 7 days after CFA administration. After calming the animals to the measurement environment for at least 1 hour, the footpads were stimulated with von Frey filaments according to the Dixon up-down method (Journal of Neuroscience Methods, Vol. 53, pp. 55-63, 1994), and then 50% threshold (g) was calculated by the following equation. […]
# human TrkA protein = human TrkA protein (Homo sapiens (Human), UniProt P04629); assay: Evaluation on binding activity against human TrkA protein (TrkA LanthaScreen Eu Kinase Binding Assay); conditions: result in words
# human TrkA protein, sequence (P04629 33-796): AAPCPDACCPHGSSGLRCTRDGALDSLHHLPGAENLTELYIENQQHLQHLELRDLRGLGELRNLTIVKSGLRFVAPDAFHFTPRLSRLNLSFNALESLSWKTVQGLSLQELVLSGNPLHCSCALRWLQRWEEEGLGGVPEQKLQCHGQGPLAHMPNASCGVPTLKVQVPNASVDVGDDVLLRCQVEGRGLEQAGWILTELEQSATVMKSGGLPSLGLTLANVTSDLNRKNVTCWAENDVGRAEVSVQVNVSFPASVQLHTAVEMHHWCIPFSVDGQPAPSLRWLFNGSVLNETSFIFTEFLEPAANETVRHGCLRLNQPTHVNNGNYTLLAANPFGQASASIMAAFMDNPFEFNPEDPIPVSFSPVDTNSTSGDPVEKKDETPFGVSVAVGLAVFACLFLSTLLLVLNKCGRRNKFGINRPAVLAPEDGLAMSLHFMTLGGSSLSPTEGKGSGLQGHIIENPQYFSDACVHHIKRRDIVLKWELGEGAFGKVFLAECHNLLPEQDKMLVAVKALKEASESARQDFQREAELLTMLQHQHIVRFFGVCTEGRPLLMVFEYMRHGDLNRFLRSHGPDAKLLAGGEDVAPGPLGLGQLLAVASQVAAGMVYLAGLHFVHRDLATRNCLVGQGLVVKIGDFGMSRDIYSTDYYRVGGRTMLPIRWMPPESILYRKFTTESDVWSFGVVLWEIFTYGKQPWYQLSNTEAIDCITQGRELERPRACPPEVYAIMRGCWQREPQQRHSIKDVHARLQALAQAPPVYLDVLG
# Procedure: (Pharmacology Experiment 1): Evaluation on Binding Activity Against Human TrkA Protein
# Measurements were made using TrkA LanthaScreen™ Eu Kinase Binding Assay (ThermoFisher SCIENTIFIC). Into 384 well plates (Corning), a 2.5 μL solution having each concentration of the test compound (1) diluted in Kinase buffer (ThermoFisher SCIENTIC) and a 2.5 μL having 15 nM TrkA enzyme (ThermoFisher SCIENTIFIC) were added. In addition, a 5 μL having 3 nM Eu-anti-His Tag […] (ThermoFisher SCIENTIFIC) and 5 μL having 30 nM Kinase™ Tracer 236 (ThermoFisher SCIENTIFIC) were added, and allowed to react at room temperature for 60 minutes. After the reaction, the fluorescence ratio was calculated as the binding amount of the test compound (1) with TrkA enzyme, by measuring the fluorescence intensity (Emission wavelength 615 nm) and TR-FRET (Emission wavelength 665 nm) of Europium by the excitation wavelength of 340 nm using EnVision 2100 (PerkinElmer). […]
# The inhibitory activity of each crystal of the test compound (1), which is 1-((1R,2R)-2-hydroxy-4,4-dimethyl-1,2,3,4-tetrahydronaphthalen-1-yl)-3-(5-methyl-6-(2-methylpyrimidin-5-yl)-2-phenylpyridin-3-yl)urea can be assessed by IC50 value.
compound,measurement,setting,value
"Cc1ncc(-c2nc(-c3ccccc3)c(NC(=O)N[C@@H]3c4ccccc4C(C)(C)C[C@H]3O)cc2C)cn1 [Example 1, 1-((1R,2R)-2-hydroxy-4,4-dimethyl-1,2,3,4-tetrahydronaphthalen-1-yl)-3-(5-methyl-6-(2-methylpyrimidin-5-yl)-2-phenylpyridin-3-yl)urea]",Abnormalities in the safety test,[1],no abnormalities
same,TrkA inhibitory effect,human TrkA protein,excellent
